Assay results taken from publication PMC7796460, “Relation of Metal-Binding Property and Selective Toxicity of 8-Hydroxyquinoline Derived Mannich Bases Targeting Multidrug Resistant Cancer Cells” (Cancers, 2021).

Legend:
OVCAR-8 cells = assay: MTT viability assay, OVCAR-8; assay type: cell-based; details: Homo sapiens, OVCAR-8, 72 h, MTT 72 h
Source text: MDCK II canine kidney cells, A431 epidermoid carcinoma cells, the human uterine sarcoma cell lines MES-SA and the doxorubicin selected MES-SA-Dx5 were obtained from ATCC (MDCK II: No. CRL-2936™, A431: No. CRL-1555™, MES-SA: No. CRL-1976™, MES-SA/Dx5: No. CRL-1977™). ABCB1 was expressed in A431 and MES-SA cells using lentiviral transduction. The human cervix carcinoma cell line KB-3-1 and the vinblastine selected KB-v1were kind gifts from Dr. Michael M. Gottesman, National Institutes of Health. The phenotype of the resistant cells was verified using cytotoxicity assays. MDCK-B1 and MDCK-MM were established by the Sleeping Beauty transposon-based gene delivery system. OVCAR-8 and NCI-ADRres cells (obtained from the Division of Cancer Treatment and Diagnosis (DCTD) Tumor Repository (National Cancer Institute, Frederick, MD, USA)) were cultivated in RPMI-1640 (Sigma Aldrich, Budapest, Hungary), and other cell lines were cultivated in Dulbecco’s Modified Eagle Medium (DMEM, Sigma Aldrich, Budapest, Hungary), supplemented with 10% fetal bovine serum, 5 mM glutamine, and 50 unit/mL penicillin and streptomycin (Life Technologies, Carlsbad, CA, USA). All cell lines were cultivated at 37 °C, 5% CO2.
MTT viability assays were performed as described earlier with minor modifications. Briefly, cells were seeded into 96-well tissue culture plates (Sarstedt, Newton, NC, USA/Orange, Braine-l’Alleud, Belgium) at a density of 5000 cells/well and allowed to attach overnight. Test compounds were added to achieve the required final concentration in a final volume of 100 µL per well. After an incubation period of 72 h, the supernatant was removed and fresh medium containing the MTT reagent (0.083 mg/mL) was added. Incubation with MTT at 37 °C was terminated after 1 h by removing the supernatant and lysing the cells with 100 µL DMSO per well. Viability of the cells was measured spectrophotometrically based on the absorbance values at 540 nm using either a Perkin Elmer Victor X3 or an EnSpire microplate reader. Data were background corrected by subtraction of the signal obtained from unstained cell lysates and normalized to untreated cells. Curves were fitted by Prism software (GraphPad Software Inc., San Diego, CA, USA) using the sigmoidal dose-response model (comparing variable and fixed slopes). […] Significance was calculated using unpaired t-tests; results are given as *: p ≤ 0.05, **: p ≤ 0.01, ***: p ≤ 0.001, ****: p ≤ 0.0001.

MES-SA/B1 cells = assay: TXRF intracellular iron levels, MES-SA/B1; assay type: cell-based, human; details: for Intracellular iron levels: MES-SA/B1, 25 µM holo-transferrin 4 h, then 5 µM ligand 8 h (Figure 4A)
Description: Cells were seeded to 6-well plates in a density of 1.5 Mio cells/well and allowed to attach overnight. Following a washing step with phosphate buffered saline (PBS), cells were incubated in serum free DMEM. For the iron-level measurements, cells were preloaded with 25 µM holo-transferrin for 4 h and, after a washing step with serum free DMEM, cells were incubated with 5 µM of each ligand for 8 h. For the detection of copper levels, cells were treated with 1 µM of the ligands in the presence of 5 µM CuCl2 for 4 h. Following incubation, cells were harvested upon trypsination, washed twice with PBS, counted and the resulting pellets were digested in 20 μL of 30% H2O2, 80 μL of 65% HNO3. 10 μL of 15 µg/mL Ga(NO3)3 (in nitric acid) was added as an internal standard upon digestion for 24 h at room temperature. From the resulting solutions, 2 μL were pipetted on the quartz reflectors used for total-reflection X-ray fluorescence (TXRF) analysis. For the determination of the intracellular Cu content, the TXRF method was used as previously reported. Briefly, all determinations were performed on an Atomika 8030C TXRF spectrometer (Atomika Instruments GmbH, Oberschleissheim, Germany). The stock solution of 1000 mg/L Ga was purchased from Merck (Darmstadt, Germany). The Kα line used for determination of Fe and Cu were at 6.403 and 8.047 keV. […] Significance was calculated using unpaired t-tests; results are given as *: p ≤ 0.05, **: p ≤ 0.01, ***: p ≤ 0.001, ****: p ≤ 0.0001.
Figure 4 Effect of the compounds on intracellular metal levels. (A) Iron levels of MES-SA (open columns) and MES-SA/B1 cells in absence (dark red squared columns) and presence of Pgp inhibitor Tariquidar (bright red squared columns). Cells were loaded with 25 µM holo-transferrin (4 h), followed by an incubation (8 h) without (ctr) or with 5 µM of ligands Q-1, Q-2, Q-3, and Q-4. […] (B) Cellular copper levels measured following a 4 h co-administration of compounds Q-1, Q-2, Q-3, and Q-4 (1 µM) and CuCl2 (5 µM) in MES-SA (open columns), MES-SA/Dx5 (filled columns) and MES-SA-B1 (squared columns) cells. Significance is given as *: p ≤ 0.05, **: p ≤ 0.01, ***: p ≤ 0.001.

[1] = Reduction of in situ formed copper(II) complexes by GSH, followed spectrophotometrically; assay type: physicochemical; details: 1:1 metal to ligand, 5 eq GSH (Figure 5B)
Source text: Disruption of cellular redox homeostasis can be responsible for the toxicity of an anticancer agent. […] In addition to their redox potentials, redox cycling of the complexed metal ions is also influenced by the kinetics of the reduction and re-oxidation reactions. Reduction of iron(III) and copper(II) complexes by the physiologically relevant reducing agents glutathione (GSH) and ascorbate was followed spectrophotometrically. Although GSH is a stronger reducing agent than ascorbate, ascorbate reacted considerably faster with the iron(III) complexes (Figure 5A), while reduction by GSH seemed to be kinetically hindered (not shown). […]
Figure 5 Reduction of the in situ formed iron(III) and copper(II) complexes from equimolar metal-to-ligand ratios with antioxidants was followed spectrophotometrically by the decrease in the respective absorbance maxima. (A) Time-dependent decrease of the absorbance values in equimolar 1:1 metal to ligand mixtures of FeCl3 with Q-1 at 356 nm (black), Q-2 at 348 nm (blue), Q-3 at 334 nm (green) and Q-4 at 328 nm upon addition of 2.5 equivalents of ascorbate. (B) Time-dependent decrease of the absorbance values in equimolar 1:1 metal to ligand mixtures of CuCl2 with Q-1 at 370 nm (black), Q-2 at 372 nm (blue), Q-3 at 368 nm (green) and Q-4 at 430 nm upon addition of 5 eq GSH. […]

[2] = presence of 1 µM Tariquidar (values in brackets)

IC50 (OVCAR-8 cells; absence of Tariquidar) | IC50 (OVCAR-8 cells; [2]) | Structure (SMILES) | Intracellular iron levels (MES-SA/B1 cells) | Time until half of the initial copper(II) complex is reduced by GSH [1] | Intracellular iron depletion in the presence of the Pgp inhibitor TQ (MES-SA/B1 cells; MES-SA/B1, 5 µM ligand 8 h, with Tariquidar)
3.16 ± 0.52 µM | 3.28 µM | Oc1c(CN2CCOCC2)ccc2cccnc12 [Compound Q-2, 7-(morpho-lino-methyl)quinolin-8-ol] |  | within the first minute | 
3.15 ± 0.36 µM | 3.72 µM | Oc1c(CN2CCCCC2)ccc2cccnc12 [Compound Q-3, 7-(piperidin-1-ylmethyl)quinolin-8-ol] | drop of intracellular iron levels below baseline levels |  | 
1.08 ± 0.1 µM | 1.09 µM | Oc1c(CNCc2ccccc2F)cc(Cl)c2cccnc12 [Compound Q-4, 5-chloro-7-((2-fluorobenzylamino)methyl)quinolin-8-ol] | marked, selective iron depletion | not yet fully reached after two hours | abrogated

Structure (SMILES) | IC50 (OVCAR-8 cells; absence of Tariquidar) | IC50 (OVCAR-8 cells; [2]) | Intracellular iron levels (MES-SA/B1 cells) | Time until half of the initial copper(II) complex is reduced by GSH [1] | Intracellular iron depletion in the presence of the Pgp inhibitor TQ (MES-SA/B1 cells; MES-SA/B1, 5 µM ligand 8 h, with Tariquidar)
Oc1cccc2cccnc12 [Compound Q-1, 8-Hydroxyquinoline] | 3.45 ± 0.13 µM | 3.43 µM | negligible |  | 
